This note sets out measurements from US10138227B2, “Heteroaryl substituted pyridines and methods of use” (AbbVie S.à.r.l., priority 2016, dated 2018).

Molecules are shown by their SMILES.

Holding throughout (format): cell-based
In one test the target is T1, CFTR ΔF508 mutant (Homo sapiens, UniProt P13569, DEL508-508).
T1 construct: expressed in transfected cells; host or cells: CFBE41o- cells transduced with adenoviral vectors
The test can be described thus: YFP-halide influx assay for the CFTR-ΔF508 mutation. To be noted: CFBE41o- cells expressing CFTR ΔF508 and YFP reporter, forskolin 10.67 μM; for EC50: (1-F/F0) vs concentration. The essentials:
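CFBE41o- cells were adenovirally transduced with CFTR ΔF508 and YFP H148Q/I152L/F47L, then corrected 24 h at 27 °C or with a CFTR modulator 24 h at 37 °C. Iodide-induced quench was recorded over 2 min. EC50 was derived from 1-F/F0 (36 s vs pre-injection) plotted against compound concentration.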

The target of another test is T2, CFTR G551D mutant (Homo sapiens, UniProt P13569, G551D).
T2 construct: expressed in transfected cells; host or cells: HEK293 cells, reverse-transfected with plasmid vectors
The test is described as follows: YFP-halide influx assay for the CFTR-G551D mutation. The conditions noted are these: HEK293 cells expressing CFTR G551D and YFP reporter; forskolin 10.67 μM. From the text: (§1) The YFP halide influx assay measured the functionality of the cystic fibrosis Transmembrane Conductance regulator (CFTR) channels. The assay was used to evaluate the capacity of compounds to increase the channel opening of existing mutant CFTR channels in the membrane. It makes use of the observation that the yellow fluorescent protein (YFP) variant YFP H148Q, I152L, F47L has its fluorescence substantially quenched by halide ions like Cl^− and I^− (Galietta, L. J. V., Haggie, P. M., Verkman, A. S., 2001. Green fluorescent protein-based halide indicators with improved chloride and iodide affinities. FEBS Lett. 499, 220-224. doi:10.1016/S0014-5793(01)02561-3).
(§2) For this purpose, HEK293-cells were seeded in 96 well plates. During seeding, the cells were reverse-transfected with plasmid vectors that direct the expression of the CFTR G551D mutant and of the YFP reporter. Cells were incubated at 37° C., 5% CO2 for 24 hours so as to allow for sufficient expression of the CFTR protein.
(§3) The I^−-induced quenching of fluorescence was recorded immediately after injection of I^− for 7 seconds. The capacity of a compound to increase the channel opening was directly correlated with the decrease in fluorescence, and was expressed as (1-(fluorescence after 7 seconds (F)/fluorescence before injection (F0))) and an EC50 was derived from a (1−F/F0) vs compound concentration plot.

The next test addresses T3, CFTR-G178R (Homo sapiens, UniProt P13569, G178R).
T3 construct: expressed in transfected cells; HEK293 with plasmid vectors inferred from the G551D protocol, to which the assay is called similar
The test is described as follows: YFP-halide influx assay for the CFTR-G178R.
Description: as §1, §2, §3
(§4) Similar YHA assays were developed for other channel gating defective or channel conductance defective CFTR mutants to determine effect of compound on channel activity. Examples of mutants are G178R, G1349D, S549N, R117H, R334W. This assay is also used for additional class I CFTR mutants, including G542X, W1282X; class II mutants including N1303K, and for class III mutants including S1251N; or wild-type CFTR.

The target in a further test is T4, CFTR-G1349D (Homo sapiens, UniProt P13569, G1349D).
T4 construct: expressed in transfected cells; HEK293 with plasmid vectors inferred from the G551D protocol, to which the assay is called similar
The test can be described thus: YFP-halide influx assay for the CFTR-G1349D.
Description: as §1, §2, §3, §4

The next test concerns the target T5, CFTR-S549N (Homo sapiens, UniProt P13569, S549N).
T5 construct: expressed in transfected cells; HEK293 with plasmid vectors inferred from the G551D protocol, to which the assay is called similar
The test can be described thus: YFP-halide influx assay for the CFTR-S549N.
Description: as §1, §2, §3, §4

Another test addresses T6, CFTR-R117H (Homo sapiens, UniProt P13569, R117H).
T6 construct: expressed in transfected cells; HEK293 with plasmid vectors inferred from the G551D protocol, to which the assay is called similar
The test can be described thus: YFP-halide influx assay for the CFTR-R117H.
Description: as §1, §2, §3, §4

The target in another test is T7, CFTR ΔF508 (Homo sapiens, UniProt P13569, DEL508-508).
T7 construct: bronchial epithelial cells isolated from CF patients homozygous for the CFTR ΔF508 mutation; host or cells: primary human bronchial epithelial cells (hAEC-CF) from CF patients homozygous for ΔF508, pre-treated with the corrector VX809 or GLPG2222
The test is described as follows: TECC assay in CFTR ΔF508, primary bronchial epithelial cells. The conditions noted are these: bronchial epithelial cells from CF patients homozygous for ΔF508, treated with 3 μM VX809 or 0.15 μM GLPG2222; increase in Isc after forskolin. How it is done:
The TECC (Transepithelial Clamp Circuit, EP-design) assay measures the functionality of the cystic fibrosis Transmembrane Conductance regulator (CFTR) by measuring the short circuit current (ISC) generated over the basolateral and apical membrane of lung epithelial cells. In TECC the transepithelial potential PD and transepithelial resistance (Rt) are measured in an open circuit and transformed to ISC using Ohm's law. 24 Wells can be measured simultaneously allowing a higher throughput compared to Ussing chambers.
For this purpose, bronchial epithelial cells isolated from CF patients homozygous for the CFTR ΔF508 mutation (hAEC-CF, McGill, UNC) are plated on type IV collagen-coated Transwell® supports (Costar). Human airway epithelia are generated by provision of an air liquid interface for 21 days to form well-differentiated polarized cultures that resemble in vivo pseudo-stratified ciliated epithelium (Fulcher, M. L., Gabriel, S., Burns, K. A., Yankaskas, J. R., Randell, S. H., 2005. Well-differentiated human airway epithelial cell cultures. Methods Mol. Med. 107, 183-206). […]
When subjected to this protocol, the following values were obtained. The difference between ΔIsc measured as DMSO (baseline), and the ΔIsc measured with the compound tested.

T2 sequence (P13569 whole entry G551D): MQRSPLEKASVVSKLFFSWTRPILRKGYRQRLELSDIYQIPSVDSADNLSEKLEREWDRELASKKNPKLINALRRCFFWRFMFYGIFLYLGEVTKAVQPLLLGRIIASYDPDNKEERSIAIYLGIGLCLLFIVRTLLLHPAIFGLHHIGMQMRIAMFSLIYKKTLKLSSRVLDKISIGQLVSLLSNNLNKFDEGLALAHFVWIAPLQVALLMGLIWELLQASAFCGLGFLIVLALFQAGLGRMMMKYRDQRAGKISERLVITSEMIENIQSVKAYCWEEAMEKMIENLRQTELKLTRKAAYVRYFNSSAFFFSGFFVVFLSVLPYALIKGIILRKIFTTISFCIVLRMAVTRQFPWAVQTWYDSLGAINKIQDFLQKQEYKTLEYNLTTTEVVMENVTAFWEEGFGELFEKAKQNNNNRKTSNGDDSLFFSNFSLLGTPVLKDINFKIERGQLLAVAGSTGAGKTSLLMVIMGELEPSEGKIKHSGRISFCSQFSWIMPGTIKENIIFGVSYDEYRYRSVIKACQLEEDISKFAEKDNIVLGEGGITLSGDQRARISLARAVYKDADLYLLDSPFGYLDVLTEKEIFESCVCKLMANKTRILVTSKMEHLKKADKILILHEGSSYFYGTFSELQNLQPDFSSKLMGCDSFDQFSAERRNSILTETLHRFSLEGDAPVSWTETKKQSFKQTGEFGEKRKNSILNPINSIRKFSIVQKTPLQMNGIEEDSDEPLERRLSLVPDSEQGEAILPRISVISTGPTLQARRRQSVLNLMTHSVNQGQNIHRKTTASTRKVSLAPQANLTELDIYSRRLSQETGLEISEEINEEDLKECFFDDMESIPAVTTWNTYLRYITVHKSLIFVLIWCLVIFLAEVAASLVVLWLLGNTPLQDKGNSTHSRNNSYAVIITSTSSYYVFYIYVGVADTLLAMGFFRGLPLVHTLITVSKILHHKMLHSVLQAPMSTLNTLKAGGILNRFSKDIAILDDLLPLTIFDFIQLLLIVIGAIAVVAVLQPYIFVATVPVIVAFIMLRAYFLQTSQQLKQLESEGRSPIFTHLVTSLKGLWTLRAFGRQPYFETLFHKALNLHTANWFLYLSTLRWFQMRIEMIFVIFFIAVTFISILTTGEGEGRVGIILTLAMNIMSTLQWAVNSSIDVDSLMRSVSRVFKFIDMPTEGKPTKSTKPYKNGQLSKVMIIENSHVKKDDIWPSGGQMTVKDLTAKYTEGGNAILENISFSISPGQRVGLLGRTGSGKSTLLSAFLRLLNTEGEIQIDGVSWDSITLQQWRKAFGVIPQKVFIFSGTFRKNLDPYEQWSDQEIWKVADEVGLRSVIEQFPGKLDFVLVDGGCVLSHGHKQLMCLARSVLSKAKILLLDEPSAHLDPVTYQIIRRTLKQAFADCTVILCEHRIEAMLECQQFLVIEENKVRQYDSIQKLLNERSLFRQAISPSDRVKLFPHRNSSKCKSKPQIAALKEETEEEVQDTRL
T1 sequence (P13569 with tags, fused parts or gaps DEL508-508): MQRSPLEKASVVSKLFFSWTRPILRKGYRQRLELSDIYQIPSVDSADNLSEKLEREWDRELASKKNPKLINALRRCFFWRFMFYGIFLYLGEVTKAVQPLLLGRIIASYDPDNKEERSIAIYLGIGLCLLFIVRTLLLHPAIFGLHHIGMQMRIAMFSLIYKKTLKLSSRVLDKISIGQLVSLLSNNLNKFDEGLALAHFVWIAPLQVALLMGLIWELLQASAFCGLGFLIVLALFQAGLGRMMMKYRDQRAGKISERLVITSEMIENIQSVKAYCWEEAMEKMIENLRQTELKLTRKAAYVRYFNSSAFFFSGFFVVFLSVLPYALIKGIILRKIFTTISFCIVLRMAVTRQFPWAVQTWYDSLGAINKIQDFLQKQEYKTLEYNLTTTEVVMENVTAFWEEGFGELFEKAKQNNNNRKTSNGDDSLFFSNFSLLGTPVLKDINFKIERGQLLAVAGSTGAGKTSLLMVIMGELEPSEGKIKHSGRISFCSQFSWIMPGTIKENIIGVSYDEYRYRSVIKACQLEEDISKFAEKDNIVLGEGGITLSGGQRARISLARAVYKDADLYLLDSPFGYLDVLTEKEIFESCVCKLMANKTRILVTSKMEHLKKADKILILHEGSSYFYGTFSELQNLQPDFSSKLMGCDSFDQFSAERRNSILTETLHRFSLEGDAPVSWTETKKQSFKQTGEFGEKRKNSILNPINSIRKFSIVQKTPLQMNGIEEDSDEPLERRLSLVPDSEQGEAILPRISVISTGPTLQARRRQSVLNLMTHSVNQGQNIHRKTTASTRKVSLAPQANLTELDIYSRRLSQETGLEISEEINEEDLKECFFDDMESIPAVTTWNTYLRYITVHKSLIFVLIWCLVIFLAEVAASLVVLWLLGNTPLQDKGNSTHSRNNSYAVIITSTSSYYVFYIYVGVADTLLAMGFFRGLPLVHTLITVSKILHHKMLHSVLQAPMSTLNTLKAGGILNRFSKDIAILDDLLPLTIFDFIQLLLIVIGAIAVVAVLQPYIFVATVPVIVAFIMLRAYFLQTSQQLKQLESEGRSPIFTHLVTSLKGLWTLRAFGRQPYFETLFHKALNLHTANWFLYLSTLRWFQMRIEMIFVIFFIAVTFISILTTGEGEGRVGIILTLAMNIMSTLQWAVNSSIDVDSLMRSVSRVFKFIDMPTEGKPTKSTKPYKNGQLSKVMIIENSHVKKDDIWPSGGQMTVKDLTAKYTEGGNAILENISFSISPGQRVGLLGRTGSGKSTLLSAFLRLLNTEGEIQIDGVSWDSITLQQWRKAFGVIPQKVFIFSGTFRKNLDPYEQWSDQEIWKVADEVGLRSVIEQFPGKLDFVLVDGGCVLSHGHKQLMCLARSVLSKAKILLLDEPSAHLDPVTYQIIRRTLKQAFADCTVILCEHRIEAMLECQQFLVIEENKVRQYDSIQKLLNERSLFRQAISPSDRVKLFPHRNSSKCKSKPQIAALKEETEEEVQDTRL
T6 sequence (P13569 whole entry R117H): as the sequence (P13569 whole entry G551D) above, with R117H, D551G counted along it
T7 sequence (P13569 with tags, fused parts or gaps DEL508-508): as the sequence (P13569 with tags, fused parts or gaps DEL508-508) above
T4 sequence (P13569 whole entry G1349D): as the sequence (P13569 whole entry G551D) above, with D551G, G1349D counted along it
T5 sequence (P13569 whole entry S549N): as the sequence (P13569 whole entry G551D) above, with S549N, D551G counted along it
T3 sequence (P13569 whole entry G178R): as the sequence (P13569 whole entry G551D) above, with G178R, D551G counted along it

The EC50 is the concentration needed to bring the measured effect to its halfway point. Low readings indicate greater potency, high ones weaker potency. Consider `Nc1cc(S(=O)(=O)c2ccc(OC(F)(F)F)cc2)cnc1-c1nnc(CO)o1` [Compound 1, (5-{3-amino-5-[4-(trifluoromethoxy)benzene-1-sulfonyl]pyridin-2-yl}-1,3,4-oxadiazol-2-yl)methanol], for which the “% Activation” value on CFTR ΔF508 mutant was 113.82%; on CFTR G551D mutant, 37.7%; at CFTR-G178R, 67.2%; at CFTR-G1349D, 72.8%; at CFTR-S549N, 75.4%; at CFTR-R117H, 88.7%. In addition, the EC50 is 0.00557 µM at CFTR ΔF508 mutant; > 10 µM at CFTR G551D mutant; 0.196 µM on CFTR-G178R; 0.137 µM at CFTR-G1349D; 0.275 µM at CFTR-S549N; 0.184 µM at CFTR-R117H. In addition, on CFTR ΔF508, the EC50 was found to be 0.04 µM.

Consider `Nc1cc(S(=O)(=O)c2ccc(OC(F)(F)F)cc2)cnc1-c1nnc(C(O)C(F)(F)F)o1` (stereo not drawn) [Compound 4, 1-(5-{3-amino-5-[4-(trifluoromethoxy)benzene-1-sulfonyl]pyridin-2-yl}-1,3,4-oxadiazol-2-yl)-2,2,2-trifluoroethan-1-ol], for which the “% Activation” value on CFTR ΔF508 mutant is 103.69%; on CFTR G551D mutant it was 34.3%. Further, the EC50 is 0.0018 µM at CFTR ΔF508 mutant, > 6.77 µM on CFTR G551D mutant and 0.006 µM at CFTR ΔF508.
